In this assay the target is recombinant human MGAT2 (Homo sapiens (Human), UniProt Q3SYC2). The assay is described as follows: Measurement of human MGAT2 inhibitory activity. It is filed as biochemical. On the procedure:
A full-length human MGAT2 gene to which a Flag-tag had been added at the N-terminal was inserted into pFastBac (from Invitrogen). A recombinant baculovirus was produced in accordance with the protocol for a Bac-to-Bac baculovirus expression system (produced by Invitrogen), and Sf-9 cells were infected therewith. The cells were collected and sonicated, and then the membrane fraction was collected through centrifugation. Western blotting analysis with an anti-Flag antibody was performed for the membrane fraction to confirm expression, and the membrane fraction was used as a recombinant human MGAT2 enzyme solution.
Solutions of the compounds of the present invention in DMSO were each aliquoted into 0.2-μL portions in a 384-well polystyrene microplate produced by Corning Incorporated, and 5 μL of an enzyme solution prepared with an assay buffer (100 mmol/L phosphate buffer (pH 7.4) containing 2 mmol/L DTT) and 5 μL of a substrate solution (100 mmol/L phosphate buffer (pH 7.4), 30 μmol/L 2-Oleoylglycerol, 10 μmol/L Oleoyl-CoA) were added thereto, and the resultant was stirred and centrifuged, and incubated in a moist chamber at room temperature for 1 hour. After enzymatic reaction, 50 μL of a quenching solution (containing 0.2 μmol/L Diolein-d5, 0.4% formic acid, and 50% isopropanol) containing Internal Standard (IS) was added to terminate the reaction, and the resultant was sealed in a plate produced by Shimadzu GLC Ltd., and then stirred and centrifuged, and measurement was performed by using an electrospray ionization method with a RapidFire360 and Agilent 6550 Q-TOF mass spectrometer. Diolein as a reaction product (P) of 2-Oleoylglycerol as the substrate and an ammonium adduct ion of the IS were detected, and the peak intensity ratio, P/IS, was calculated from the peak heights to evaluate the inhibitory activity. Inhibitory activities with/without addition of enzyme were defined as Control (+)/Control (−), respectively, and the respective % inhibitions were defined as 0% inhibition and 100% inhibition. The inhibitory activity was calculated from formula below with TIBCO Spotfire (produced by TIBCO Software Inc.): Inhibitory activity (%)=[1−{Sample−Control(−)}/{Control(+)−Control(−)}]*100 where Sample indicates a peak intensity ratio: P/IS, when the compound of the present invention was added.

The mark [1] stands for this setting: read-out: IC50 (concentration exhibiting 50% enzyme inhibition), Table 53.
Setting [2] is: read-out: IC50 (concentration exhibiting 50% enzyme inhibition), Table 52.

pIC50: −log10 of the molar value. Read-outs that look alike come from different tables or passages of the source.

Chain of recombinant human MGAT2 (Q3SYC2 whole entry): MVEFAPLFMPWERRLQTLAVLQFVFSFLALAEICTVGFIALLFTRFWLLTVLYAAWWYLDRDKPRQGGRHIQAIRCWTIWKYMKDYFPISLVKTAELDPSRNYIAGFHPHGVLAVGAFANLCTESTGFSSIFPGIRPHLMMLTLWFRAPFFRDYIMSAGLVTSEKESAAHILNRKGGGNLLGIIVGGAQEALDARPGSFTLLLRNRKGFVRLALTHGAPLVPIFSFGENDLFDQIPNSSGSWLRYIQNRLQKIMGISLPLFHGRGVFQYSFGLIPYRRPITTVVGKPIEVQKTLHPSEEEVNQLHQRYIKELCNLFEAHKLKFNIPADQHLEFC

For `Cc1ccc(-n2nc3c(c2C(=O)NCC#N)C(=O)N[C@@]2(CCc4cc(OCC(F)(F)F)ccc42)C3)cc1F` [II-219], the pIC50 under setting [1] is 7.08.

As for `Cc1cc(-n2nc3c(c2NC(=O)CS(C)(=O)=O)C(=O)N[C@@]2(CCc4cc(C5CC5)ccc42)C3)nn1C` [II-303], under setting [1], the pIC50 is 8.35.

As to `O=C1N[C@@]2(CCc3cc(OCC(F)(F)F)ccc32)Cc2nn(CCC3CC3)c(C(=O)NCC3(CO)COC3)c21` [Compound I-89], under setting [2], the pIC50 was 7.26.

In the case of `Cc1cc(-n2nc3c(c2NC(=O)CS(C)(=O)=O)C(=O)N[C@@]2(CCc4cc(OCC(F)(F)F)ccc42)C3)ccc1C#N` [II-148], under setting [1], the pIC50 was 7.91.

As to `CS(=O)(=O)CC(=O)Nc1c2c(nn1-c1ccncn1)C[C@@]1(CCc3cc(OCC(F)(F)F)ccc31)NC2=O` [Compound I-272], the pIC50 under setting [2] is 7.70.

`CS(=O)(=O)CC(=O)Nc1c2c(nn1CCN1CCCC1)C[C@]1(CCc3cc(OCCCC(F)(F)F)ccc31)NC2=O` [Compound I-47]: under setting [2], the pIC50 is 6.58.

Take `O=C1N[C@@]2(CCc3cc(OCC(F)(F)F)ccc32)Cc2nn(CCC3CC3)c(C(=O)NS(=O)(=O)C3CCCC3)c21` [Compound I-113]: the pIC50 under setting [2] is 6.09.

As to `CS(=O)(=O)CC(=O)Nc1c2c(nn1CCC1CC1)C[C@]1(CCc3cc(OCC(F)(F)F)c(F)cc31)NC2=O` [II-152], the pIC50 under setting [1] is 8.71.

With `COc1ccc(-n2nc3c(c2NC(=O)CS(C)(=O)=O)C(=O)N[C@@]2(CCc4cc(OCC(F)(F)F)ccc42)C3)nc1` [Compound I-262], under setting [2], the pIC50 was 7.47.

On to `N#Cc1ccc(-n2nc3c(c2C(=O)NCC(F)(F)F)C(=O)N[C@]2(CCc4cc(OCC(F)(F)F)ccc42)C3)nc1` [II-244], for which, under setting [1], the pIC50 was 8.32.

Consider `CS(=O)(=O)CC(=O)Nc1c2c(nn1CCC1CC1)C[C@]1(CCc3cc(C#N)ccc31)NC2=O` [Compound I-93], for which, under setting [2], the pIC50 is 6.80.

Consider `O=C(Nc1c2c(nn1CCC1CC1)C[C@]1(CCc3cc(OCC(F)(F)F)ccc31)NC2=O)c1cccnn1` [Compound I-81], for which, under setting [2], the pIC50 was 6.62.

As to `O=C1N[C@@]2(CCc3cc(OCC(F)(F)F)ccc32)Cc2nn(CCC3CC3)c(-c3nn[nH]n3)c21` [Compound I-280], the pIC50 under setting [2] is 7.32.

For the molecule `CS(=O)(=O)CC(=O)Nc1c2c(nn1-c1cccc(C#N)c1)C[C@]1(CCc3cc(OCC(F)(F)F)ccc31)NC2=O` [Compound I-245], the pIC50 under setting [2] is 6.28.

For `CC1(C)CCC(Cn2nc3c(c2NC(=O)CS(C)(=O)=O)C(=O)N[C@@]2(CCc4cc(OCC(F)(F)F)ccc42)C3)O1` (stereo partly drawn) [Compound I-259], the pIC50 under setting [2] was 7.23.

On to `O=C(Nc1c2c(nn1CCC1CC1)C[C@]1(CCc3cc(OCC(F)(F)F)ccc31)NC2=O)c1cccnc1` [Compound I-78], for which the pIC50 under setting [2] is 7.43.

For `CS(=O)(=O)CC(=O)Nc1c2c(nn1-c1ccc(C(F)(F)F)cn1)C[C@]1(CCOc3cc(OCC(F)(F)F)ccc31)NC2=O` [II-294], the pIC50 under setting [1] was greater than 9.00.

On to `CSCC(=O)Nc1c2c(nn1CCC1CC1)C[C@]1(CCc3cc(OCC(F)(F)F)ccc31)NC2=O` [II-38], for which the pIC50 under setting [1] is 7.52.

Consider `CC(C)(O)CCn1nc2c(c1NC(=O)CS(C)(=O)=O)C(=O)N[C@@]1(CCc3cc(OCCCC(F)(F)F)ccc31)C2` [Compound I-69], for which the pIC50 under setting [2] was 7.26.

Regarding `O=C(CC(F)(F)F)NCc1c2c(nn1CCC1CC1)C[C@]1(CCc3cc(OCC(F)(F)F)ccc31)NC2=O` [Compound I-148], the pIC50 under setting [2] was 8.25.

With `CCO[C@H]1C[C@H](n2nc3c(c2NC(=O)CS(C)(=O)=O)C(=O)N[C@@]2(CCc4cc(OCC(F)(F)F)ccc42)C3)C1` [II-193], the pIC50 under setting [1] was 7.47.

As to `CS(=O)(=O)CC(=O)Nc1c2c(nn1CCc1ccccc1F)C[C@]1(CCc3cc(OCC(F)(F)F)ccc31)NC2=O` [II-13], the pIC50 under setting [1] is 7.57.

As to `O=C(Nc1c2c(nn1CCC1CC1)C[C@]1(CCc3cc(OCC(F)(F)F)ccc31)NC2=O)c1ccoc1` [Compound I-218], the pIC50 under setting [2] was 7.32.

On to `O=C(Nc1c2c(nn1CCC1CC1)C[C@]1(CCc3cc(OCCCC(F)(F)F)ccc31)NC2=O)c1ccccc1` [Compound I-19], for which the pIC50 under setting [2] was 7.42.

For the molecule `Cc1ccc(-n2nc3c(c2C(=O)NCCS(N)(=O)=O)C(=O)N[C@@](c2ccc(OCC(F)(F)F)cc2F)(C(F)(F)F)C3)nc1` [II-242], the pIC50 under setting [1] is 7.59.

As for `CS(=O)(=O)CC(=O)Nc1c2c(nn1-c1ccc(C#N)cn1)C[C@@]1(CCc3cc(OCC(F)(F)F)cc(F)c31)NC2=O` [Compound I-137], under setting [2], the pIC50 was 8.77.

Take `CS(=O)(=O)CC(=O)Nc1c2c(nn1-c1ccc(C(F)F)cc1)C[C@]1(CCOc3cc(OCC(F)(F)F)ccc31)NC2=O` [II-298]: the pIC50 under setting [1] is greater than 9.00.

On to `Cc1ncc(C(=O)Nc2c3c(nn2CCC2CC2)C[C@]2(CCc4cc(OCC(F)(F)F)ccc42)NC3=O)s1` [Compound I-230], for which the pIC50 under setting [2] was 6.68.

As for `Cn1c(-n2nc3c(c2NC(=O)CS(C)(=O)=O)C(=O)N[C@@]2(CCc4cc(OCCCC(F)(F)F)ccc42)C3)nc2ccccc21` [Compound I-45], under setting [2], the pIC50 is 7.38.

`CS(=O)(=O)CC(=O)Nc1c2c(nn1-c1ccc(C#N)cn1)CC1(CN(Cc3ccc(C(F)(F)F)cc3)C1)NC2=O` [II-16]: the pIC50 under setting [1] was 7.55.

Consider `CS(=O)(=O)CC(=O)Nc1c2c(nn1-c1ccc(OC(F)(F)F)cc1)C[C@]1(CCc3cc(OCCCC(F)(F)F)ccc31)NC2=O` [Compound I-33], for which the pIC50 under setting [2] is 7.83.

As to `CC1(C)CN(c2ccc3c(c2)CC[C@@]32Cc3nn(CCC4CC4)c(NC(=O)CS(C)(=O)=O)c3C(=O)N2)C1` [II-37], under setting [1], the pIC50 is 7.92.

On to `N#Cc1ccc(-n2nc3c(c2C(=O)NC2CC(F)(F)C2)C(=O)N[C@@]2(CCc4cc(OCC(F)(F)F)ccc42)C3)nc1` [II-188], for which the pIC50 under setting [1] was 8.30.

For the molecule `CS(=O)(=O)CC(=O)Nc1c2c(nn1-c1ccc(C(F)(F)F)nn1)C[C@]1(CCc3cc(OCC(F)(F)F)ccc31)NC2=O` [II-106], the pIC50 under setting [1] was 8.76.

As for `Cc1ccc(-n2nc3c(c2NC(=O)CS(C)(=O)=O)C(=O)N[C@@]2(CCc4cc(OCC(F)(F)F)ccc42)C3)cc1C` [Compound I-132], under setting [2], the pIC50 was 8.02.

Consider `CC1(C(=O)NCc2c3c(nn2CCC2CC2)C[C@]2(CCc4cc(OCC(F)(F)F)ccc42)NC3=O)COC1` [Compound I-83], for which, under setting [2], the pIC50 was 6.96.

For `CCCn1nc2c(c1NC(=O)CS(C)(=O)=O)C(=O)N[C@@]1(CCc3cc(OCCCC(F)(F)F)ccc31)C2` [Compound I-54], the pIC50 under setting [2] was 7.32.

As to `Cc1cc(-n2nc3c(c2C(=O)NCC(N)=O)C(=O)N[C@@]2(CCc4cc(OCC(F)(F)F)ccc42)C3)no1` [II-253], the pIC50 under setting [1] is 8.37.

Take `N#Cc1ccc(-n2nc3c(c2C(=O)NCC2(CO)COC2)C(=O)N[C@@]2(CCc4cc(OCC(F)(F)F)ccc42)C3)nc1` [II-62]: the pIC50 under setting [1] is 7.82.

Consider `CS(=O)(=O)CC(=O)Nc1c2c(nn1CCC1CC1)C[C@]1(CCc3cc(F)cc(F)c31)NC2=O` [Compound I-178], for which the pIC50 under setting [2] is 7.41.

With `O=C(NCc1c2c(nn1CCC1CC1)C[C@]1(CCc3cc(OCC(F)(F)F)ccc31)NC2=O)c1cocn1` [Compound I-154], the pIC50 under setting [2] is 6.28.

Regarding `Cc1cc(C)cc(-n2nc3c(c2NC(=O)CS(C)(=O)=O)C(=O)N[C@@]2(CCc4cc(OCC(F)(F)F)ccc42)C3)c1` [Compound I-129], the pIC50 under setting [2] was 7.58.

On to `CNS(=O)(=O)CC(=O)Nc1c2c(nn1CCC1CC1)C[C@]1(CCc3cc(OCCCC(F)(F)F)ccc31)NC2=O` [Compound I-31], for which the pIC50 under setting [2] is 8.49.

As for `COCCCNC(=O)c1c2c(nn1-c1ccc(C#N)cn1)C[C@]1(CCc3cc(OCC(F)(F)F)ccc31)NC2=O` [II-123], the pIC50 under setting [1] was 7.66.

Consider `CS(=O)(=O)CC(=O)Nc1c2c(nn1CCOCC(F)F)C[C@@]1(CCc3cc(OCC(F)(F)F)ccc31)NC2=O` [II-18], for which the pIC50 under setting [1] was 7.33.

As for `CS(=O)(=O)CC(=O)Nc1c2c(nn1CCC1CC1)C[C@]1(CCc3cc(NC(=O)CC(F)(F)F)ccc31)NC2=O` [Compound I-198], the pIC50 under setting [2] is 7.17.

Turning to `CS(=O)(=O)CC(=O)Nc1c2c(nn1-c1ccc3c(c1)OC(F)(F)O3)C[C@]1(CCc3cc(OCC(F)(F)F)ccc31)NC2=O` [Compound I-247], the pIC50 under setting [2] is 7.08.

For the molecule `CS(=O)(=O)CC(=O)Nc1c2c(nn1CCCC#N)C[C@]1(CCc3cc(OCC(F)(F)F)ccc31)NC2=O` [Compound I-254], under setting [2], the pIC50 was 7.02.

Regarding `CS(=O)(=O)CC(=O)Nc1c2c(nn1-c1cccc(C3CC3)c1)C[C@]1(CCc3cc(OCC(F)(F)F)ccc31)NC2=O` [Compound I-248], under setting [2], the pIC50 is 6.62.

For the molecule `CS(=O)(=O)CC(=O)Nc1c2c(nn1-c1ccc(S(C)(=O)=O)cc1)C[C@]1(CCc3cc(OCCCC(F)(F)F)ccc31)NC2=O` [Compound I-43], the pIC50 under setting [2] was 6.47.

For `O=C(Nc1c2c(nn1CCC1CC1)C[C@]1(CCc3cc(OCC(F)(F)F)ccc31)NC2=O)c1csnn1` [Compound I-219], the pIC50 under setting [2] is 6.96.

The values are drawn from patent US11198695B2, “Fused ring derivative having MGAT-2 inhibitory activity” (Shionogi & Co., Ltd., priority 2017, dated 2021).
